According to patent US20060293223A1 (Eli Lilly and Company Patent Division, priority 2003, published 2006):
Positions of bridges follow the written chain, without caps; N, C: chain ends. Non-standard residues stand in square brackets, D forms with d. No end group written: not given here. hCys = N[C@@H](CCS)C(=O)O

System: MC1/MC4
Details: ratio MC1/MC4
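Further: ratio of EC50 values obtained at MC1 versus MC4 receptors, with MC1 potency measured by luciferase reporter activity in stably transfected cells expressing human MC1.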

Substance | MC1/MC4 selectivity
N-propionyl-cyclo[Cys-Glu-His-D-Phe-Arg-Trp-Cys]-NH2 [Compound 37] | 36.99
Ac-Arg-cyclo[Cys-Cya-His-D-Phe-Arg-Trp-Cys]-NH2 [Compound 26] | 38.90
Ac-Tyr-Arg-cyclo[Cys-Glu-(β-(1,3-thiazol-4-yl)-Ala)-D-Phe-Arg-Trp-Cys]-NH2 [Compound 112] | 5.62
3-(4-methylbenzoyl)propionyl-Arg-cyclo[Cys-Glu-His-D-Phe-Arg-Trp-Cys]-NH2 [Compound 67] | 9.15
Ac-Tyr-Arg-cyclo[Cys-Glu-His-D-Phe-Arg-Trp-Cys] alcohol [Compound 78] | 9.00
Ac-Lys(ipr)-cyclo[Cys-Glu-His-D-Phe-Arg-Trp-Cys]-NH2 [Compound 59] | 20.92
4-phenylbutyryl-cyclo[hCys-His-D-Phe-Arg-Trp-Cys]-NH2 [Compound 147] | 0.86
4-phenylbutyryl-cyclo[hCys-His-D-Phe-Arg-Trp-penicillamine]-NH2 [Compound 174] | 4.98
Ac-Tyr-Arg-cyclo[Cys-Glu-His-D-Phe-Arg-Trp-Cys]-NH2 [Compound 72] | 22.31
Ac-Arg-cyclo[Cys-His-(4-Cl-D-Phe)-Arg-Trp-hCys]-NH2 [Compound 191] | 127.33
Ac-CQH[dF]RWC-NH2 (disulfide 1-7) [Compound 8] | 3.33
Ac-Tyr-Arg-cyclo[Cys-Glu-(4-phenyl-1H-imidazol-2-yl-Ala)-D-Phe-Arg-Trp-Cys]-NH2 [Compound 103] | 75.59
cyclo[Cys-His-D-Phe-Arg-Trp-hCys]-NH2 [Compound 180] | 30.38
cyclo[hCys-His-D-Phe-Arg-Trp-Cys]-OH [Compound 133] | 31.29
Ac-cyclo[hCys-His-(4-F-D-Phe)-Arg-Trp-Cys]-NH2 [Compound 139] | 44.29
Ac-YRCRH[dF]RWC-NH2 (disulfide 3-9) [Compound 4] | 0.26
Ac-Arg-cyclo[Cys-Glu-His-D-Phe-Arg-Trp-Cys]-OH [Compound 49] | 35.35
Arg-cyclo[hCys-(1-Me-D-His)-D-Phe-Arg-Trp-Cys]-NH2 [Compound 157] | 17.60
Arg-cyclo[hCys-His-D-Phe-Arg-Trp-hCys]-NH2 [Compound 194] | 10.61

Substance | MC1/MC4 selectivity
Ac-diaminobutyryl-cyclo[Cys-Glu-His-D-Phe-Arg-Trp-Cys]-NH2 [Compound 44] | 15.00
cyclo[Cys-His-(4-F-D-Phe)-Arg-Trp-hCys]-NH2 [Compound 181] | 45.25
3-guanidinopropionyl-cyclo[hCys-His-D-Phe-Arg-Trp-Cys]-NH2 [Compound 148] | 51.98
Ac-R[hCys]H[dF]RWC-NH2 (disulfide 2-7) [Compound 158] | 50.25
cyclo[Cys-Glu-His-D-Phe-Arg-Trp-Cys]-NH2 [Compound 29] | 15.00
3-(4-hydroxyphenyl)propionyl-Arg-cyclo[Cys-Glu-His-D-Phe-Arg-Trp-Cys]-NH2 [Compound 66] | 13.23
Ac-nLeu-cyclo[Cys-Glu-His-D-Phe-Arg-Trp-Cys]-NH2 [Compound 60] | 29.95
cyclo[hCys-His-(4-Cl-D-Phe)-Arg-Trp-Cys]-NH2 [Compound 135] | 120.27
Ac-cyclo[Cys-His-(4-Cl-D-Phe)-Arg-Trp-hCys]-NH2 [Compound 185] | 269.59
Ac-Arg-cyclo[Cys-Glu-His-(4-Cl-D-Phe)-Arg-Trp-Cys]-NH2 [Compound 50] | 36.10
N-hexanoyl-cyclo[hCys-His-D-Phe-Arg-Trp-Cys]-NH2 [Compound 145] | 3.82
3-guanidinopropionyl-cyclo[Cys-Glu-His-D-Phe-Arg-Trp-Cys]-NH2 [Compound 40] | 25.92
Ac-Tyr-Arg-cyclo[Cys-Glu-His-(4-Br-D-Phe)-Arg-Trp-Cys]-NH2 [Compound 89] | 71.43
Ac-YRCMH[dF]RWC-NH2 (disulfide 3-9) [Compound 18] | 8.15
N-cyclopentanecarbonyl-cyclo[hCys-His-D-Phe-Arg-Trp-penicillamine]-NH2 [Compound 171] | 75.11
Ac-VCEH[dF]RWC-NH2 (disulfide 2-8) [Compound 63] | 30.51
Tyr-Arg-cyclo[Cys-Glu-His-D-Phe-Arg-Trp-Cys]-NH2 [Compound 68] | 14.08
Ac-Tyr-Arg-cyclo[Cys-Glu-(1-Me-D-His)-(4-Br-D-Phe)-Arg-Trp-Cys]-NH2 [Compound 91] | 21.14
Ac-cyclo[hCys-His-D-Phe-Arg-Trp-penicillamine]-NH2 [Compound 168] | 212.71

Substance | MC1/MC4 selectivity
cyclo[3-thiopropionyl-His-D-Phe-Arg-Trp-hCys]-NH2 [Compound 179] | 5.35
Ac-RCH[dF]RW[hCys]-NH2 (disulfide 2-7) [Compound 189] | 23.31
Ac-CEH[dF]RWCSP-NH2 (disulfide 1-7) [Compound 36] | 1.22
Ac-Tyr-Arg-cyclo[Cys-Glu-His-(4-OMe-D-Phe)-Arg-Trp-Cys]-NH2 [Compound 93] | 1.48
Ac-Tyr-Arg-cyclo[hCys-Glu-His-D-Phe-Arg-Trp-hCys]-NH2 [Compound 197] | 1.00
Ac-YRCPH[dF]RWC-NH2 (disulfide 3-9) [Compound 20] | 4.81
Ac-Tyr-Arg-cyclo[hCys-Glu-His-D-Phe-Arg-Trp-Cys]-NH2 [Compound 166] | 9.38
Ac-Tyr-Arg-cyclo[Cys-Glu-(3-Me-His)-D-Phe-Arg-Trp-Cys]-NH2 [Compound 96] | 20.87
Ac-Tyr-Arg-cyclo[Cys-Glu-(1-Me-His)-(4-Br-D-Phe)-Arg-Trp-Cys]-NH2 [Compound 90] | 237.22
Ac-Tyr-Arg-cyclo[Cys-Glu-His-D-Phe-Arg-Trp-Cys]-Lys-Pro alcohol [Compound 122] | 0.90
N-succinyl-Tyr-Arg-cyclo[Cys-Glu-His-D-Phe-Arg-Trp-Cys]-NH2 [Compound 74] | 12.00
Ac-Tyr-Arg-cyclo[Cys-Glu-His-(4-Cl-D-Phe)-Arg-Trp-Cys]-NH2 [Compound 86] | 66.21
Ac-Tyr-Cit-cyclo[Cys-Glu-His-D-Phe-Arg-Trp-Cys]-NH2 [Compound 124] | 18.11
RCH[dF]RW[hCys]-NH2 (disulfide 2-7) [Compound 186] | 11.44
R[hCys]H[dF]RWC-OH (disulfide 2-7) [Compound 155] | 55.84
Ac-YRCWH[dF]RWC-NH2 (disulfide 3-9) [Compound 23] | 10.54
Ac-KCEH[dF]RWC-NH2 (disulfide 2-8) [Compound 58] | 31.69
Tyr-Arg-cyclo[Cys-Glu-His-D-Phe-Arg-Trp-Cys]-OH [Compound 69] | 18.38
